US10654828B2 (NOVARTIS AG, priority 2017, dated 2020)
Where two headings read alike, the source gives them in different places.

What was measured:
FoxO3a = FoxO3a inhibition: GFP-FoxO3a nuclear to cytoplasmic translocation reporter assay; format: cell-based; conditions: U2OS GFP-FoxO3a H212R cells, serum starved overnight, compound 30 minutes, ratio of nuclear to cytosolic GFP intensity, DMSO control 0%, read-out: FoxO AC50
Description: (§1) Phosphorylation of AKT on S473 and FoxO3a nuclear to cytoplasmic translocation were used as readouts of PI3K/Akt/mTOR pathway activation downstream of growth factor signaling.
(§2) Reporter cell line. U2OS GFP-FoxO3a H212R reporter cell line was established by transducing U2OS cells with the retroviral plasmid pLEGFP-C1 containing FoxO3a H212R transgene and selecting for G418 resistant clones.
(§3) Reporter assay. U2OS GFP-FoxO3a H212R cells were plated in 384-well plates at 4000 cells per well in 30 microliters of McCoy's 5 A medium containing 10% FBS. On day 1 the cells were washed with serum free medium and serum starved overnight. On day 2 the cells were treated with different doses of the compounds for 30 minutes, fixed with 4% Paraformaldehyde for 1 hour and stained with Phospho-AKT (Ser473) antibody (Cell Signaling Technology, catalog #4060) overnight at 4 degrees Celsius. After nuclei staining with Hoechst 33342 (Life Technologies, catalog # H3570) the plates were imaged with InCell 2000 (GE Healthcare Bio-Sciences). FoxO3a inhibition activity is calculated as the ratio of nuclear to cytosolic GFP intensity in percent. AKT activation is measured as the total cellular intensity of Phospho-AKT antibody staining in percent. DMSO control is set as 0% activity.

AKT = AKT activation: Phospho-AKT (Ser473) antibody staining in reporter cells; format: cell-based; conditions: U2OS GFP-FoxO3a H212R cells, serum starved overnight, compound 30 minutes, total cellular intensity of Phospho-AKT (Ser473) staining, DMSO control 0%
Description: as §1, §2, §3

SMILES | AC50 (FoxO3a; Homo sapiens, U2OS, 0.5 h) | AC50 (AKT; Homo sapiens, U2OS, 0.5 h) | AC50 (FoxO3a) | AC50 (AKT)
Cc1cc(C(N)=O)nn1-c1ccc2c(ccn2Cc2ccc(-c3ccc(S(=O)(=O)CCO)cc3)cc2)c1 [Example 18, 1-(1-((4′-((2-hydroxyethyl)sulfonyl)-[1,1′-biphenyl]-4-yl)methyl)-1H-indol-5-yl)-5-methyl-1H-pyrazole-3-carboxamide] | 57 nM | 110 nM |  | 
Cc1cc(C(N)=O)nn1-c1ccc2c(ccn2Cc2ccc(-c3ccc(CN4CCOCC4)cc3)cc2)c1 [Example 1-37, 5-methyl-1-(1-((4′-(morpholinomethyl)-[1,1′-biphenyl]-4-yl)methyl)-1H-indol-5-yl)-1H-pyrazole-3-carboxamide] | 75 nM | 206 nM |  | 
Cc1cc(C(N)=O)nn1-c1ccc2c(ccn2Cc2ccc(-c3ccc(NS(C)(=O)=O)cc3)cc2)c1 [Example 1-33, 5-methyl-1-(1-((4′-(methylsulfonamido)-[1,1′-biphenyl]-4-yl)methyl)-1H-indol-5-yl)-1H-pyrazole-3-carboxamide] | 82 nM | 351 nM |  | 
Cc1cc(C(N)=O)nn1-c1ccc2c(ccn2Cc2ccc([C@H]3C[C@@H]4CN(C)C[C@@H]4C3)cc2)c1 [Example 26-2, 5-methyl-1-(1-(4-((3aR,5s,6aS)-2-methyloctahydrocyclopenta[c]pyrrol-5-yl)benzyl)-1H-indol-5-yl)-1H-pyrazole-3-carboxamide] | 80 nM | 362 nM |  | 
COCCCc1cn(Cc2ccc(-c3ccc(S(C)(=O)=O)cc3)cc2)c2ccc(-n3nc(C(N)=O)cc3C)cc12 [Example 23, 1-(3-(3-methoxypropyl)-1-((4′-(methylsulfonyl)-[1,1′-biphenyl]-4-yl)methyl)-1H-indol-5-yl)-5-methyl-1H-pyrazole-3-carboxamide] | 56 nM | 173 nM |  | 
Cc1cc(C(N)=O)nn1-c1ccc2c(ccn2Cc2ccc(-c3ccc(S(=O)(=O)N(C)C)cc3)cc2)c1 [Example 1-13, 1-(1-((4′-(N,N-dimethylsulfamoyl)-[1,1′-biphenyl]-4-yl)methyl)-1H-indol-5-yl)-5-methyl-1H-pyrazole-3-carboxamide] | 84 nM | 230 nM |  | 
Cc1cc(C(N)=O)nn1-c1ccc2c(c1)c(C1=CCOCC1)cn2Cc1ccc(-c2ccc(S(C)(=O)=O)cc2)cc1 [Example 19-1, 1-(3-(3,6-dihydro-2H-pyran-4-yl)-1-((4′-(methylsulfonyl)-[1,1′-biphenyl]-4-yl)methyl)-1H-indol-5-yl)-5-methyl-1H-pyrazole-3-carboxamide] | 52 nM | 81 nM |  | 
Cc1cc(C(N)=O)nn1-c1ccc2c(ccn2Cc2ccc(C3CCCN(C)CC3)cc2)c1 (single isomer, unassigned) [Example 29-2, 5-methyl-1-(1-(4-(1-methylazepan-4-yl)benzyl)-1H-indol-5-yl)-1H-pyrazole-3-carboxamide] |  |  | 818 nM | 2100 nM
Cc1cc(C(N)=O)nn1-c1ccc2c(ccn2Cc2ccc(-c3ccc4cn[nH]c4c3)cc2)c1 [Example 1-14, 1-(1-(4-(1H-indazol-6-yl)benzyl)-1H-indol-5-yl)-5-methyl-1H-pyrazole-3-carboxamide] | 284 nM | 1050 nM |  | 
Cc1cc(C(N)=O)nn1-c1ccc2c(ccn2Cc2ccc(-c3cccc(S(N)(=O)=O)c3)cc2)c1 [Example 1-20, 5-methyl-1-(1-((3′-sulfamoyl-[1,1′-biphenyl]-4-yl)methyl)-1H-indol-5-yl)-1H-pyrazole-3-carboxamide] | 126 nM | > 10000 nM |  | 
Cc1cc(C(N)=O)nn1-c1ccc2c(ccn2Cc2ccc(C3=CCNCC3)cc2)c1 [Example 3, 5-methyl-1-(1-(4-(1,2,3,6-tetrahydropyridin-4-yl)benzyl)-1H-indol-5-yl)-1H-pyrazole-3-carboxamide] | 476 nM | 1170 nM |  | 
Cc1cc(C(N)=O)nn1-c1ccc2c(ccn2Cc2ccc(-c3ccc(N)cc3)cc2)c1 [Example 1-26, 1-(1-((4′-amino-[1,1′-biphenyl]-4-yl)methyl)-1H-indol-5-yl)-5-methyl-1H-pyrazole-3-carboxamide] | 129 nM | > 10000 nM |  | 
